Tests used:
[1] = test system: MV4-11 myeloid leukemia cells; test: Cell growth; format: cell-based; details: read-out: cell growth IC50; MV4-11 cells; 5 days
TF-1 cells [2] = test: Cell growth; format: cell-based, human; details: read-out: cell growth IC50, medium with GM-CSF, 5 days
TF1/SHP2^E69K cells [3] = test: Cell growth in GM-CSF free medium; format: cell-based, human; details: read-out: cell growth IC50, 5 days
[4] = test system: SHP2-knocked out TF-1 cell lines (TF1/KO1, TF1/KO2); test: Cell growth and cell lysate analysis in SHP2 knockout cells; format: cell-based, human; details: medium with GM-CSF
MV4-11 cells = test: Immunoblot analysis of cell lysates; format: cell-based
TF-1 cells [5] = test: Immunoblot analysis of cell lysates; format: cell-based, human
TF1/SHP2^E69K cells [6] = test: Immunoblot analysis of cell lysates; format: cell-based, human; details: 2 days of SHP099 treatment
TF1/SHP2^D61Y cells = test: Immunoblot analysis of cell lysates; format: cell-based, human; details: 2 days of SHP099 treatment
TF1/SHP2^A72V cells = test: Immunoblot analysis of cell lysates; format: cell-based, human; details: 2 days of SHP099 treatment
TF1/SHP2^E76K cells [7] = test: Immunoblot analysis of cell lysates; format: cell-based, human; details: 2 days of SHP099 treatment
TF1/SHP2^E76K cells [8] = test: Methylcellulose colony formation assay; format: cell-based, human; details: methylcellulose culture, 10 µM SHP099, day 7
TF1/SHP2^E69K cells [9] = test: Methylcellulose colony formation assay; format: cell-based, human; details: methylcellulose culture, 10 µM SHP099, day 7

With `CC1(N)CCN(c2cnc(-c3cccc(Cl)c3Cl)c(N)n2)CC1` [SHP099] the IC50 [1] was 0.32 ± 0.11 µM, the IC50 (TF-1 cells [2]) was 1.73 ± 0.52 µM and the IC50 (TF1/SHP2^E69K cells [3]) was 1.46 ± 0.46 µM. The “effects in SHP2-knocked out TF-1 cell lines” value [4] was “little effects”, the Bcl-XL level (MV4-11 cells) was “reduced” and the PARP cleavage (MV4-11 cells) was “induced”. The pERK1/2 level (MV4-11 cells) was “reduced”, the Bcl-XL level (TF-1 cells [5]) was “reduced” and the PARP cleavage (TF-1 cells [5]) was “induced”. For the same compound, the “active ERK” value (TF-1 cells [5]) was “inhibited”, the Bcl-XL level (TF1/SHP2^E69K cells [6]) was “reduced” and the PARP cleavage (TF1/SHP2^E69K cells [6]) was “induction”. For the same compound, the pERK1/2 level (TF1/SHP2^E69K cells [6]) was “reduced”, the Bcl-XL level (TF1/SHP2^D61Y cells) was “little effect” and the PARP cleavage (TF1/SHP2^D61Y cells) was “did not induce”. For the same compound, the pERK1/2 level (TF1/SHP2^D61Y cells) was “little effect”, the Bcl-XL level (TF1/SHP2^A72V cells) was “little effect” and the PARP cleavage (TF1/SHP2^A72V cells) was “did not induce”. For the same compound, the pERK1/2 level (TF1/SHP2^A72V cells) was “little effect”, the Bcl-XL level (TF1/SHP2^E76K cells [7]) was “little effect” and the PARP cleavage (TF1/SHP2^E76K cells [7]) was “did not induce”. For the same compound, the pERK1/2 level (TF1/SHP2^E76K cells [7]) was “little effect”, the GM-CSF hypersensitivity (TF1/SHP2^E76K cells [8]) was “did not affect” and the cytokine-independent colonies (TF1/SHP2^E76K cells [8]) was “little effect”. For the same compound, the GM-CSF hypersensitivity (TF1/SHP2^E69K cells [9]) was “lost” and the cytokine-independent colonies (TF1/SHP2^E69K cells [9]) was “eliminated”.
